Measurements as given in US8187635B2, “Pharmaceutical composition containing a pyrrolidone anticonvulsant agent and method for the preparation thereof” (Pharmathen S.A, priority 2007, dated 2012).
Where two headings read alike, the source gives them in different places.

How the values were obtained:
[1] = Compatibility of Levetiracetam with excipients (impurity profile); format: physicochemical
Protocol: Levetiracetam was tested for its compatibility with several pharmaceutically acceptable excipients comprising the above mentioned properties.

[2] = cited from earlier work
[3] = cited from earlier work; remark: listed apart in the source

impurity profile of the active ingredient with excipient ([1]; with PVP): not acceptable
impurity profile of the active ingredient with excipient ([1]; with sodium starch glycolate (Primojel)): not acceptable
SMILES: CC[C@@H](C(N)=O)N1CCCC1=O [Levetiracetam, S-enantiomer of α-ethyl-2-oxo-1-pyrrolidine acetamide]
solubility ([2]; in acetonitrile): sparingly soluble
solubility ([2]; in chloroform): freely soluble
solubility ([2]; in methanol): freely soluble
solubility ([2]; in n-hexane): practically insoluble
solubility ([2]; in water): very soluble
bioavailability [3]: 100%
protein binding [3]: lack of protein binding
